Source: PubChem BioAssay AID2060511 (Molecular Pharmacology Branch, DTP, NCI, 2025)

Test system: 422866-222-R5-J1-PDC spheroids with HUVEC/MSC, viability
Assay: Anticancer human tumor 422866-222-R5-J1-PDC patient-derived pancreatic adenocarcinoma cell line growth inhibition [GQUAD]
Settings: for IC50: curve of first compound; for viability, T/C: stronger effect = lower value
Method in brief: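 Multi-cell-type spheroids of tumor cells with HUVEC and mesenchymal stem cells, treated with drug combinations. Concentrations descend in half-log steps from near clinical Cmax, or from 10 microM where Cmax is unknown; viability read-out.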

[1] = second compound 0.0316 µM, first compound 0.0316 µM
[2] = second compound 0.0316 µM, first compound 0.1 µM
[3] = second compound 0.0316 µM, first compound 0.316 µM
[4] = second compound 0.0316 µM, first compound 1 µM
[5] = second compound 0.0316 µM, first compound 3.16 µM
[6] = second compound 0.0316 µM, first compound 10 µM
[7] = second compound 0.1 µM, first compound 0.0316 µM
[8] = second compound 0.1 µM, first compound 0.1 µM
[9] = second compound 0.1 µM, first compound 0.316 µM
[10] = second compound 0.1 µM, first compound 1 µM
[11] = second compound 0.1 µM, first compound 3.16 µM
[12] = second compound 0.1 µM, first compound 10 µM
[13] = second compound 0.316 µM, first compound 0.0316 µM
[14] = second compound 0.316 µM, first compound 0.1 µM
[15] = second compound 0.316 µM, first compound 0.316 µM
[16] = second compound 0.316 µM, first compound 1 µM
[17] = second compound 0.316 µM, first compound 3.16 µM
[18] = second compound 0.316 µM, first compound 10 µM
[19] = second compound 1 µM, first compound 0.0316 µM
[20] = second compound 1 µM, first compound 0.1 µM
[21] = second compound 1 µM, first compound 0.316 µM
[22] = second compound 1 µM, first compound 1 µM
[23] = second compound 1 µM, first compound 3.16 µM
[24] = second compound 1 µM, first compound 10 µM
[25] = second compound 3.16 µM, first compound 0.0316 µM
[26] = second compound 3.16 µM, first compound 0.1 µM
[27] = second compound 3.16 µM, first compound 0.316 µM
[28] = second compound 3.16 µM, first compound 1 µM
[29] = second compound 3.16 µM, first compound 3.16 µM
[30] = second compound 3.16 µM, first compound 10 µM
[31] = second compound 10 µM, first compound 0.0316 µM
[32] = second compound 10 µM, first compound 0.1 µM
[33] = second compound 10 µM, first compound 0.316 µM
[34] = second compound 10 µM, first compound 1 µM
[35] = second compound 10 µM, first compound 3.16 µM
[36] = second compound 10 µM, first compound 10 µM
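Note: spheroids exposed to compounds for seven days before reading.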
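Throughout, for viability, T/C: percent viability relative to DMSO vehicle control taken as 100%.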

CC(C)(O)C1CCC(Nc2ccc3ncc(-c4cccc(C(F)(F)F)c4)n3n2)CC1 (stereo not drawn) + CN(C)c1ccc(Nc2c3ccc(NC(=O)CCN4CCCC4)cc3nc3cc(NC(=O)CCN4CCCC4)ccc23)cc1
IC50 (second compound 0.0316 µM): 2.09 µM | IC50 (second compound 0.1 µM): 2.67 µM | IC50 (second compound 0.316 µM): 1.71 µM | IC50 (second compound 1 µM): 1.77 µM | IC50 (second compound 3.16 µM): 1.57 µM | IC50 (second compound 10 µM): > 10 µM | viability, T/C [1]: 88% | viability, T/C [2]: 80.5% | viability, T/C [3]: 92.9% | viability, T/C [4]: 71.8% | viability, T/C [5]: 38.4% | viability, T/C [6]: 33.1% | viability, T/C [7]: 90.2% | viability, T/C [8]: 87.4% | viability, T/C [9]: 81.1% | viability, T/C [10]: 68.5% | viability, T/C [11]: 45.7% | viability, T/C [12]: 39% | viability, T/C [13]: 72.7% | viability, T/C [14]: 82.4% | viability, T/C [15]: 66.1% | viability, T/C [16]: 58.5% | viability, T/C [17]: 41.3% | viability, T/C [18]: 36.9% | viability, T/C [19]: 85.6% | viability, T/C [20]: 80.2% | viability, T/C [21]: 77.2% | viability, T/C [22]: 57.6% | viability, T/C [23]: 42.1% | viability, T/C [24]: 35.4% | viability, T/C [25]: 82.2% | viability, T/C [26]: 77.2% | viability, T/C [27]: 64.3% | viability, T/C [28]: 63.5% | viability, T/C [29]: 33% | viability, T/C [30]: 40.6% | viability, T/C [31]: 77.4% | viability, T/C [32]: 69.6% | viability, T/C [33]: 79.1% | viability, T/C [34]: 75.4% | viability, T/C [35]: 63.2% | viability, T/C [36]: 55.5%

CCCS(=O)(=O)Nc1ccc(F)c(C(=O)c2c[nH]c3ncc(-c4ccc(Cl)cc4)cc23)c1F + CN(C)c1ccc(Nc2c3ccc(NC(=O)CCN4CCCC4)cc3nc3cc(NC(=O)CCN4CCCC4)ccc23)cc1
IC50 (second compound 0.0316 µM): > 10 µM | IC50 (second compound 0.1 µM): > 10 µM | IC50 (second compound 0.316 µM): > 10 µM | IC50 (second compound 1 µM): > 10 µM | IC50 (second compound 3.16 µM): > 10 µM | IC50 (second compound 10 µM): > 10 µM | viability, T/C [1]: 95.8% | viability, T/C [2]: 117% | viability, T/C [3]: 121% | viability, T/C [4]: 136% | viability, T/C [5]: 164% | viability, T/C [6]: 130% | viability, T/C [7]: 112% | viability, T/C [8]: 91.6% | viability, T/C [9]: 112% | viability, T/C [10]: 137% | viability, T/C [11]: 203% | viability, T/C [12]: 128% | viability, T/C [13]: 98% | viability, T/C [14]: 108% | viability, T/C [15]: 122% | viability, T/C [16]: 143% | viability, T/C [17]: 158% | viability, T/C [18]: 127% | viability, T/C [19]: 74.3% | viability, T/C [20]: 88.3% | viability, T/C [21]: 113% | viability, T/C [22]: 112% | viability, T/C [23]: 196% | viability, T/C [24]: 130% | viability, T/C [25]: 83.8% | viability, T/C [26]: 97.7% | viability, T/C [27]: 97% | viability, T/C [28]: 157% | viability, T/C [29]: 189% | viability, T/C [30]: 154% | viability, T/C [31]: 90.3% | viability, T/C [32]: 90.2% | viability, T/C [33]: 123% | viability, T/C [34]: 131% | viability, T/C [35]: 129% | viability, T/C [36]: 153%

Cc1[nH]c2ccccc2c1CCNCc1ccc(/C=C/C(=O)NO)cc1 + CN(C)c1ccc(Nc2c3ccc(NC(=O)CCN4CCCC4)cc3nc3cc(NC(=O)CCN4CCCC4)ccc23)cc1
IC50 (second compound 0.0316 µM): > 0.316 µM | IC50 (second compound 0.1 µM): > 0.316 µM | IC50 (second compound 0.316 µM): > 0.316 µM | IC50 (second compound 1 µM): > 0.316 µM | IC50 (second compound 3.16 µM): > 0.316 µM | IC50 (second compound 10 µM): > 0.316 µM | viability, T/C (second compound 0.0316 µM, first compound 0.000999 µM): 118% | viability, T/C (second compound 0.0316 µM, first compound 0.00316 µM): 98.7% | viability, T/C (second compound 0.0316 µM, first compound 0.00999 µM): 116% | viability, T/C [1]: 83.2% | viability, T/C (second compound 0.0316 µM, first compound 0.0999 µM): 54.3% | viability, T/C [3]: 56.8% | viability, T/C (second compound 0.1 µM, first compound 0.000999 µM): 98.3% | viability, T/C (second compound 0.1 µM, first compound 0.00316 µM): 102% | viability, T/C (second compound 0.1 µM, first compound 0.00999 µM): 119% | viability, T/C [7]: 89.9% | viability, T/C (second compound 0.1 µM, first compound 0.0999 µM): 73.5% | viability, T/C [9]: 61.5% | viability, T/C (second compound 0.316 µM, first compound 0.000999 µM): 105% | viability, T/C (second compound 0.316 µM, first compound 0.00316 µM): 102% | viability, T/C (second compound 0.316 µM, first compound 0.00999 µM): 98.7% | viability, T/C [13]: 76% | viability, T/C (second compound 0.316 µM, first compound 0.0999 µM): 69.4% | viability, T/C [15]: 57% | viability, T/C (second compound 1 µM, first compound 0.000999 µM): 77.3% | viability, T/C (second compound 1 µM, first compound 0.00316 µM): 91.9% | viability, T/C (second compound 1 µM, first compound 0.00999 µM): 131% | viability, T/C [19]: 112% | viability, T/C (second compound 1 µM, first compound 0.0999 µM): 63.3% | viability, T/C [21]: 52% | viability, T/C (second compound 3.16 µM, first compound 0.000999 µM): 89.5% | viability, T/C (second compound 3.16 µM, first compound 0.00316 µM): 97.3% | viability, T/C (second compound 3.16 µM, first compound 0.00999 µM): 102% | viability, T/C [25]: 103% | viability, T/C (second compound 3.16 µM, first compound 0.0999 µM): 80.4% | viability, T/C [27]: 56.4% | viability, T/C (second compound 10 µM, first compound 0.000999 µM): 96% | viability, T/C (second compound 10 µM, first compound 0.00316 µM): 95.4% | viability, T/C (second compound 10 µM, first compound 0.00999 µM): 98.8% | viability, T/C [31]: 109% | viability, T/C (second compound 10 µM, first compound 0.0999 µM): 75.2% | viability, T/C [33]: 53.7%

O=c1[nH]cc(F)c(=O)[nH]1 + CN(C)c1ccc(Nc2c3ccc(NC(=O)CCN4CCCC4)cc3nc3cc(NC(=O)CCN4CCCC4)ccc23)cc1
IC50 (second compound 0.0316 µM): > 10 µM | IC50 (second compound 0.1 µM): > 10 µM | IC50 (second compound 0.316 µM): > 10 µM | IC50 (second compound 1 µM): > 10 µM | IC50 (second compound 3.16 µM): > 10 µM | IC50 (second compound 10 µM): > 10 µM | viability, T/C [1]: 96.8% | viability, T/C [2]: 86.5% | viability, T/C [3]: 97% | viability, T/C [4]: 84.5% | viability, T/C [5]: 82.2% | viability, T/C [6]: 66.2% | viability, T/C [7]: 99.7% | viability, T/C [8]: 74.6% | viability, T/C [9]: 104% | viability, T/C [10]: 75.5% | viability, T/C [11]: 71.2% | viability, T/C [12]: 72% | viability, T/C [13]: 88.6% | viability, T/C [14]: 79% | viability, T/C [15]: 75.4% | viability, T/C [16]: 88.9% | viability, T/C [17]: 67.3% | viability, T/C [18]: 68.4% | viability, T/C [19]: 88.6% | viability, T/C [20]: 77% | viability, T/C [21]: 86.5% | viability, T/C [22]: 79% | viability, T/C [23]: 70.8% | viability, T/C [24]: 67.9% | viability, T/C [25]: 78.8% | viability, T/C [26]: 79.4% | viability, T/C [27]: 86.2% | viability, T/C [28]: 88.1% | viability, T/C [29]: 65.9% | viability, T/C [30]: 53.6% | viability, T/C [31]: 91.3% | viability, T/C [32]: 108% | viability, T/C [33]: 93.8% | viability, T/C [34]: 84% | viability, T/C [35]: 75.2% | viability, T/C [36]: 76.6%
